In PubChem BioAssay (NCI) one finds TGI and GI50 data, which are given here for 19 compounds.

Common to all, as to assay: NCI anticancer screen, dose series, 48 h
Assay [1] deals with A549 NSCLC.
The subject of assay [2] is NCI-H522 lung.
Assay [3] relates to SF-539 CNS.
Assay [4] relates to COLO 205 colon.
Assay [5] relates to OVCAR-8 ovarian.
Assay [6] concerns 786-0 renal.
The test system of assay [7] is NCI-H460 lung.
The subject of assay [8] is SK-MEL-2 melanoma.
Assay [9] deals with RPMI-8226 leukemia.
The subject of assay [10] is TK-10 renal.

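Test compounds were applied to cells in 96-well plates for 48 hours at 5 doses. GI50 marks 50% less growth. At the TGI there is no net growth.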

`CC1Cc2c(N)nc(N3CCOCC3)nc2NC1=O` (centres undefined): the TGI in assay [1], in assay [2], in assay [3], in assay [4], in assay [5] and in assay [6] was greater than 100 µM in each case. Also, the TGI in assay [7], in assay [8], in [9] and in [10] was greater than 100 µM throughout.
On to `O=C(O[C@H]1CN[C@H](C#Cc2cc3ncnc(Nc4ccc(OCc5cccc(F)c5)c(Cl)c4)c3s2)C1)N1CCOCC1`, for which the GI50 in assay [1] is 6 µM; in assay [2] it was 1.41 µM; in assay [3] it was 5.09 µM; in assay [4] it was 5.32 µM; in assay [5] it was 7.35 µM; in assay [6], 4.68 µM. For the same compound, the GI50 in assay [7] is 6.4 µM; in assay [8], 7.4 µM; in assay [9], 4.48 µM; in assay [10], 0.17 µM. The TGI in assay [1] is greater than 25 µM; in assay [2] it was 8.12 µM; in assay [3] it was 12 µM; in assay [4] it was 11.1 µM; in [5], greater than 25 µM; in [6], 9.66 µM. In addition, the TGI in assay [7] is greater than 25 µM; in assay [8] it was 18.7 µM; in [9], 17.3 µM; in [10] it was 8.41 µM.
Regarding `N#C/C(=C/C=C/c1ccccc1)S(=O)c1ccccc1` (centres undefined), the GI50 in [1] was 2.17 µM; in assay [2], 0.306 µM; in assay [3] it was 0.267 µM; in assay [4], 0.482 µM; in [5], 0.338 µM; in assay [6] it was 0.322 µM. The GI50 in assay [7] was 0.506 µM; in assay [8], 2.09 µM; in assay [9] it was 0.351 µM; in [10], 0.501 µM. Besides, the TGI in assay [1] is 11.3 µM; in assay [2] it was 1.35 µM; in [3], 1.07 µM; in assay [4] it was 2.07 µM; in assay [5], 1.73 µM; in assay [6], 1.36 µM. For the same compound, the TGI was 2.92 µM in assay [7], 5.62 µM in assay [8], 1.32 µM in [9] and 1.85 µM in assay [10].
For `N/C(=N\c1nc2ccccc2s1)NC(=O)Nc1ccccc1Cl`, the GI50 is 0.19 µM in [1]; 0.0439 µM in assay [2]; 0.0853 µM in assay [3]; 0.151 µM in assay [4]; 0.179 µM in assay [5]; 0.184 µM in [6]. The GI50 in assay [7] is 0.149 µM; in [8], 3.24 µM; in assay [9], 0.144 µM; in assay [10] it was 4.11 µM. In addition, the TGI in assay [1] amounted to 18.1 µM; in assay [2] it was 11.9 µM; in assay [3], 0.834 µM; in assay [4], 2.13 µM; in [5] it was 25.1 µM; in [6], 10.4 µM. In addition, the TGI is 10.4 µM in assay [7], greater than 61.3 µM in [8], 9.28 µM in [9] and 18.7 µM in [10].
Turning to `CN(C)c1ccc2cc(-c3cc4c(oc3=O)-c3ccccc3OC4O)c(=O)oc2c1` (centres undefined), the GI50 in assay [1] is 3.22 µM; in assay [2] it was 3.6 µM; in assay [3] it was 6.83 µM; in assay [4] it was 3.89 µM; in [5], 3.2 µM; in [6] it was 8.33 µM. The GI50 in assay [7] is 4.14 µM; in [8], 3.03 µM; in [9] it was 0.439 µM; in assay [10], 6.63 µM. Besides, the TGI was 7.15 µM in assay [1]; 10.2 µM in assay [2]; greater than 25 µM in assay [3]; 8.19 µM in assay [4]; 15.7 µM in [5]; greater than 25 µM in assay [6]. In addition, the TGI in [7] worked out at 14.3 µM; in [8], 7.53 µM; in [9], 4.71 µM; in assay [10], 19.8 µM.
On to `C=C1SC(=Nc2ccccc2Cl)N(C(=O)c2sc3ccccc3c2Cl)C1(C)C`, for which the GI50 was 4.5 µM in assay [1]; 3.03 µM in [2]; 14 µM in assay [3]; 3.49 µM in assay [4]; 5.08 µM in assay [5]; 25.4 µM in assay [6]. Also, the GI50 was 4.14 µM in [7], 8.83 µM in assay [8], 2.44 µM in assay [9] and 5.57 µM in assay [10]. Besides, the TGI in [1] is greater than 100 µM; in [2], 26.8 µM; in assay [3], greater than 100 µM; in assay [4], 11 µM; in [5] it was greater than 100 µM; in assay [6], greater than 81.9 µM. Besides, the TGI in assay [7] is greater than 57.1 µM; in assay [8] it was 31.9 µM; in assay [10], 37.1 µM.
Turning to `CC(=O)O[C@H]1CCC2[C@@H]3CCC4Nc5c(cnn5-c5ccccc5)C[C@]4(C)C3CC[C@@]21C` (some centres undefined), the TGI in assay [1] turned out to be 68.7 µM; in assay [2], 29.7 µM; in assay [3], 54.9 µM; in assay [4], 28.9 µM; in [5], 39.6 µM; in assay [6], 67.5 µM. Moreover, the TGI in assay [7] was 42.1 µM; in assay [8], 35.8 µM; in [9] it was 46.2 µM; in assay [10], 50.3 µM.
As for `O=C1CC2C(=O)C1C(C(=O)O)C2C(=O)O` (centres undefined), the TGI in assay [1], in assay [2], in assay [3], in assay [4], in [5] and in assay [6] was greater than 100 µM in each case. Moreover, the TGI in assay [7], in [8], in assay [9] and in [10] was greater than 100 µM in each case.
`CN(C1=NS(=O)(=O)N=C(N(C)c2ccccc2)O1)c1ccccc1`: the TGI in assay [1] came out at 54.4 µM; in assay [2] it was 46.2 µM; in assay [3] it was 39.3 µM; in assay [4] it was 46 µM; in assay [5] it was 33.3 µM; in assay [6] it was 72.7 µM. For the same compound, the TGI worked out at 47.7 µM in assay [7], 38 µM in [8], 43.9 µM in [9] and 80.2 µM in assay [10].
Take `COc1c(B(O)O)cccc1-c1nc2c(F)cc3[nH]ncc3c2c2c1CCCC2`: the GI50 in assay [1] is 1.05 µM; in assay [2], 1.98 µM; in [3], 0.343 µM; in assay [4] it was 1.61 µM; in [5], 2.03 µM; in assay [6], 1.33 µM. Besides, the GI50 in assay [7] is 1.79 µM; in assay [8] it was 2.42 µM; in [9] it was 0.579 µM; in [10], 0.0391 µM. Besides, the TGI is greater than 55.8 µM in assay [1]; 13.1 µM in assay [2]; 4.99 µM in assay [3]; 6.19 µM in assay [4]; greater than 100 µM in assay [5]; 17.6 µM in [6]. In addition, the TGI in [7] was 11.9 µM; in [8], 6.8 µM; in assay [9] it was 4.59 µM; in assay [10], greater than 38.4 µM.
Regarding `C/C=C1\C(=O)O[C@@H]2C1C[C@@H]1O[C@H]2[C@H](C)CCC/C(C)=C/CC[C@@]1(C)O` (some centres undefined), the GI50 in [1] is 10.6 µM; in [2], 2.29 µM; in [3], 2.52 µM; in assay [4], 8.16 µM; in [5], 2.52 µM; in [6], 3.21 µM. The GI50 was 4.81 µM in [7], 3.66 µM in [8], 3.27 µM in assay [9] and 4.46 µM in [10]. In addition, the TGI came to 22.5 µM in assay [1]; 7.06 µM in [2]; 6.06 µM in assay [3]; 41.8 µM in [4]; 6.76 µM in assay [5]; 14.2 µM in assay [6]. In addition, the TGI was 25.7 µM in [7], 13.2 µM in assay [8], greater than 100 µM in assay [9] and 13.5 µM in [10].
On to `N#CC(C(=O)CCC(=O)Nc1ccc(Cl)cc1)c1ccccc1Cl` (centres undefined), for which the TGI in assay [1], in [2], in assay [3], in [4], in assay [5] and in assay [6] was greater than 100 µM in each case. For the same compound, the TGI in assay [7], in assay [8], in assay [9] and in assay [10] was greater than 100 µM throughout.
In the case of `Cc1ccc(NC(=O)CC/C(CC(=O)c2ccc(Cl)cc2)=N\NC(=O)C(=O)NN)cc1C`, the TGI in assay [1], in [2], in [3], in [4], in assay [5] and in [6] was greater than 100 µM each time. Moreover, the TGI in assay [7], in assay [8], in assay [9] and in assay [10] was greater than 100 µM in each case.
Regarding `O=C1/C=C/[C@@H](O)[C@@H]2C[C@@H](O)C[C@H]2/C=C/CCC[C@H](CO)O1`, the GI50 in assay [1] was 3.65 µM; in assay [2] it was 2.67 µM; in assay [3], 3.7 µM; in assay [4] it was 1.7 µM; in [5], 3 µM; in assay [6], 1.78 µM. Moreover, the GI50 in assay [7] was 3.21 µM; in assay [8], 2.39 µM; in assay [9], 3.32 µM; in assay [10], 3.06 µM. For the same compound, the TGI was greater than 100 µM in assay [1]; 7.74 µM in [2]; greater than 100 µM in [3]; 3.32 µM in [4]; greater than 100 µM in assay [5]; 4.87 µM in assay [6]. Moreover, the TGI in assay [7] was greater than 100 µM; in assay [8] it was 5.95 µM; in [9] it was greater than 100 µM; in [10] it was 10.9 µM.
Consider `CCCCCCCC(=O)OCC1OC(n2cc(F)c(=O)[nH]c2=O)C(NC(=O)OCc2ccccc2)C(OC(=O)CCCCCCC)C1O` (centres undefined), for which the TGI in [1] is greater than 100 µM; in assay [2] it was 72 µM; in assay [3], 74.4 µM; in assay [4] it was 68.3 µM; in assay [5], greater than 100 µM; in assay [6] it was 65.1 µM. In addition, the TGI in [7] is greater than 100 µM; in assay [8], 57.1 µM; in [9], 51.2 µM; in assay [10], greater than 100 µM.
Turning to `CC([C@H]1CCC2C3CCC4CC5(CC[C@]4(C)C3CC[C@@]21C)c1ccccc1C(=O)N5C)N(C)C` (some centres undefined), the TGI is greater than 100 µM in [1]; greater than 100 µM in [2]; 71.8 µM in [3]; greater than 100 µM in assay [4]; greater than 100 µM in [5]; 29.8 µM in assay [6]. In addition, the TGI was greater than 100 µM in assay [7], 42.9 µM in assay [8], greater than 100 µM in [9] and greater than 100 µM in [10].
Consider `Oc1cccc(Cn2c(-c3cccc(O)c3O)nc3ccccc32)c1O`, for which the GI50 was 14.1 µM in assay [1]; 7.88 µM in [2]; 9.49 µM in [3]; 11.7 µM in assay [4]; 11.7 µM in [5]; 1.86 µM in [6]. The GI50 was 3.59 µM in assay [7], 42 µM in [8], 9.69 µM in [9] and 1.88 µM in assay [10]. Also, the TGI came out at 40.9 µM in assay [1]; 49.1 µM in assay [2]; 38.4 µM in assay [3]; 32.2 µM in assay [4]; 53.1 µM in assay [5]; 14.1 µM in assay [6]. For the same compound, the TGI in [7] was 16.3 µM; in [8] it was greater than 100 µM; in assay [9], greater than 100 µM; in assay [10], 7.52 µM.
As to `NNC(=O)CCC(=O)Nc1ccc(Cl)cc1Cl`, the TGI in assay [1], in assay [2], in assay [3], in assay [4], in assay [5] and in [6] was greater than 100 µM in each case. The TGI in assay [7], in assay [8], in [9] and in assay [10] was greater than 100 µM in each case.
`N#Cc1nn(C2OC(COC(=O)c3ccccc3)C(OC(=O)c3ccccc3)C2OC(=O)c2ccccc2)c2nc[nH]c(=O)c12` (centres undefined): the TGI in [1], in assay [2], in assay [3], in assay [4], in assay [5] and in assay [6] was greater than 100 µM in each case. Besides, the TGI in assay [7], in [8], in [9] and in [10] was greater than 100 µM each time.
